Experimental data from patent US20240150377A1, “MODULATORS OF CYSTIC FIBROSIS TRANSMEMBRANE CONDUCTANCE REGULATOR” (VERTEX PHARMACEUTICALS INCORPORATED, priority 2020, published 2024).
“And” between values parts separate entries of the source, which are not always exact repeats. Equal values may be shown once. Read-outs that look alike come from different tables or passages of the source.

Columns and labels:
[1] = amide bond, 13-membered ring
CFTR = target: T1, CFTR (Homo sapiens, UniProt P13569, DEL508-508); assay: HBE assay: Ussing chamber assay of CFTR-mediated short-circuit currents; format: cell-based; conditions: for EC50: read-out: HBE EC50
T1 construct: endogenous in cells; host or cells: primary human bronchial epithelial cells from CF subjects (F508del/MF-HBE), differentiated at air-liquid interface
T1 sequence (P13569 with tags, fused parts or gaps DEL508-508): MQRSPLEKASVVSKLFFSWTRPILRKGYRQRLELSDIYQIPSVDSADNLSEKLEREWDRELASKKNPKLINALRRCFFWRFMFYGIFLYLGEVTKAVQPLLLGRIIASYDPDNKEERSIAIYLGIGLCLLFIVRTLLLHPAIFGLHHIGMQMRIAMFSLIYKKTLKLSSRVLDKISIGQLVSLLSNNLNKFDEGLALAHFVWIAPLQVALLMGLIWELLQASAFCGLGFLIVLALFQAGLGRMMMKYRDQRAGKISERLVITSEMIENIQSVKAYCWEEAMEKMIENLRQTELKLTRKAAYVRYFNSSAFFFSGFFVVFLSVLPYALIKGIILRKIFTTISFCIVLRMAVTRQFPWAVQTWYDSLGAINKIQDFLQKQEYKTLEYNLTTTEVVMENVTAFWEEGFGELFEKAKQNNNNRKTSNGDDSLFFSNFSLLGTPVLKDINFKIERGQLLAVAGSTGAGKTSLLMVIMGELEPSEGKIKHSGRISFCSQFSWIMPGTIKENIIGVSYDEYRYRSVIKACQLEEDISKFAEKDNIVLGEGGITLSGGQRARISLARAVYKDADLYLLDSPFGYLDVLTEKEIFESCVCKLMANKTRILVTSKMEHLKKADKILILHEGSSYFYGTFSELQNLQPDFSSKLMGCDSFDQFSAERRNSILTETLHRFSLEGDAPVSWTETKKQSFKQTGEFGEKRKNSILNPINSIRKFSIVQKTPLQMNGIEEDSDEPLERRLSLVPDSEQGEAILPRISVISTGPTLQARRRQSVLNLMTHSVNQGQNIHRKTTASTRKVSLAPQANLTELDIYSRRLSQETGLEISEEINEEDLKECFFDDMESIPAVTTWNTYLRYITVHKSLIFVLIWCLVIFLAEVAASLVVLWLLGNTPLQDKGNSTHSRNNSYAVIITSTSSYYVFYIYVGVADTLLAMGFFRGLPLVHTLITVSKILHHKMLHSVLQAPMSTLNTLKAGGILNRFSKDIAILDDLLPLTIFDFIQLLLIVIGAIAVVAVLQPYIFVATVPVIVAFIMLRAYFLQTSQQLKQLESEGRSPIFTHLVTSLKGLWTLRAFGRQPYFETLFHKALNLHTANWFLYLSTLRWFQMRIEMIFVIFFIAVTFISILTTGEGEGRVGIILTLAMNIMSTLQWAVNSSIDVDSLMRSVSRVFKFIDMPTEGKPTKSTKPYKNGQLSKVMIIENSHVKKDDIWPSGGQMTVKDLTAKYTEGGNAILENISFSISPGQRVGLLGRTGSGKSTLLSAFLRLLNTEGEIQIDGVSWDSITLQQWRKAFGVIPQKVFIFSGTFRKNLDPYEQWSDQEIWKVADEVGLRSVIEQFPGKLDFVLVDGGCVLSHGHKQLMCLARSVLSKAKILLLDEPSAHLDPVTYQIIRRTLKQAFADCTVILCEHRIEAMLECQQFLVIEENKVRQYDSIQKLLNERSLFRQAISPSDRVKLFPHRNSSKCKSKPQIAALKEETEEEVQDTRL
In short: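 CFTR-mediated Isc (μA/cm²) equals the peak response to apical 20 μM forskolin minus the residual after a 20 μM each BPO/GlyH-101/CFTR inhibitor 172 cocktail, recorded in Ussing chambers at Vhold 0 mV, 37 °C, pH 7.4, with 30 μM apical amiloride. Cells were F508del/MF HBE cultures preincubated 18-24 h with corrector (concentration range or 10 μM) plus 1 μM ivacaftor in 20% human serum.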

[2] = Table 10, read-out: HBE Max activity (%)
[3] = Table 11, read-out: HBE Max Activity (%)

Cc1cccc(C)c1-c1cc2nc(n1)NS(=O)(=O)c1cccc(c1)C(=O)N(CC1CCN(C(=O)OC(C)(C)C)CC1)[C@H](CC(C)(C)C)CO2
ring closure, yield after HPLC ([1]; from Cc1cccc(C)c1-c1cc(OC[C@@H](CC(C)(C)C)NCC2CCN(C(=O)OC(C)(C)C)CC2)nc(NS(=O)(=O)c2cccc(C(=O)O)c2)n1, CDMT/NMM, DMF, 25.0 °C, 3.5 h, 2 steps): 25%

Cc1cccc(C)c1-c1cc2nc(n1)NS(=O)(=O)c1cccc(c1)C(=O)N(CCc1ccc(Br)cn1)[C@H](CC(C)(C)C)CO2
ring closure, yield after HPLC ([1]; from Cc1cccc(C)c1-c1cc(OC[C@@H](CC(C)(C)C)NCCc2ccc(Br)cn2)nc(NS(=O)(=O)c2cccc(C(=O)O)c2)n1, CDMT/NMM, DMF, 25.0 °C, 3.0 h, 2 steps): 15%

Cc1cccc(C)c1-c1cc2nc(n1)NS(=O)(=O)c1cccc(c1)C(=O)N(CCc1cccc(F)n1)[C@H](CC(C)(C)C)CO2
ring closure, yield after HPLC ([1]; from Cc1cccc(C)c1-c1cc(OC[C@@H](CC(C)(C)C)NCCc2cccc(F)n2)nc(NS(=O)(=O)c2cccc(C(=O)O)c2)n1, CDMT/NMM, DMF, 25.0 °C, 3.0 h, 2 steps): 6%

Cc1cccc(C)c1-c1cc2nc(n1)NS(=O)(=O)c1cccc(c1)C(=O)N(C[C@H]1COC(C)(C)O1)[C@H](CC(C)C)CO2
ring closure, yield after HPLC ([1]; from Cc1cccc(C)c1-c1cc(OC[C@@H](CC(C)C)NC[C@H]2COC(C)(C)O2)nc(NS(=O)(=O)c2cccc(C(=O)O)c2)n1, HATU/DIEA, DMF, 26.2 mM, 25.0 °C, 2.0 h, 2 steps): 12%

Cc1cccc(C)c1-c1cc2nc(n1)NS(=O)(=O)c1cccc(c1)C(=O)N(Cc1ccc(F)nc1)[C@H](CC(C)(C)C)CO2
ring closure, yield after HPLC ([1]; from Cc1cccc(C)c1-c1cc(OC[C@@H](CC(C)(C)C)NCc2ccc(F)nc2)nc(NS(=O)(=O)c2cccc(C(=O)O)c2)n1, CDMT/NMM, DMF, 25.0 °C, 5.0 h, 2 steps): 34%

Cc1cccc(C)c1-c1cc2nc(n1)NS(=O)(=O)c1cccc(c1)C(=O)N(Cc1ccc(I)cc1)[C@H](CC(C)(C)C)CO2
ring closure, yield after HPLC ([1]; from Cc1cccc(C)c1-c1cc(OC[C@@H](CC(C)(C)C)NCc2ccc(I)cc2)nc(NS(=O)(=O)c2cccc(C(=O)O)c2)n1, HATU/DIEA, DMF, 26.1 mM, 15.0 h): 32%

Cc1cccc(C)c1-c1cc2nc(n1)NS(=O)(=O)c1cccc(c1)C(=O)N(Cc1ccccn1)[C@H](CC(C)(C)C)CO2
ring closure, yield after HPLC ([1]; from Cc1cccc(C)c1-c1cc(OC[C@@H](CC(C)(C)C)NCc2ccccn2)nc(NS(=O)(=O)c2cccc(C(=O)O)c2)n1, HATU/TEA, DMF, 20.2 mM, 16.0 h): 41%

Cc1cccc(C)c1-c1cc2nc(n1)NS(=O)(=O)c1cccc(c1)C(=O)N(Cc1cncc(N(C)C3CCC3)n1)[C@@H]1CN(C(=O)OC(C)(C)C)C[C@H]1O2
ring closure, yield after HPLC ([1]; from Cc1cccc(C)c1-c1cc(O[C@@H]2CN(C(=O)OC(C)(C)C)C[C@H]2NCc2cncc(N(C)C3CCC3)n2)nc(NS(=O)(=O)c2cccc(C(=O)O)c2)n1, CDMT/NMM, DMF, 24.3 mM, 15.1 h): 48%

Cc1cccc(C)c1-c1cc2nc(n1)NS(=O)(=O)c1cccc(c1)C(=O)N(Cc1cncc(N3CCC[C@H]3C)n1)C(C1CC(C)(C)C1)CO2 (stereo partly drawn)
ring closure, yield after HPLC ([1]; from Cc1cccc(C)c1-c1cc(OCC(NCc2cncc(N3CCC[C@H]3C)n2)C2CC(C)(C)C2)nc(NS(=O)(=O)c2cccc(C(=O)O)c2)n1, CDMT/NMM, DMF, 12.7 mM, 16.5 h): 18% and 17%

Cc1cccc(C)c1-c1cc2nc(n1)NS(=N)(=O)c1cccc(c1)C(=O)N(Cc1ncc(N3CC(C)(C)C3)cn1)[C@H](CC(C)(C)C)CO2 (single isomer, unassigned; isomer a)
ring closure, yield after HPLC ([1]; from Cc1cccc(C)c1-c1cc(OC[C@@H](CC(C)(C)C)NCc2ncc(N3CC(C)(C)C3)cn2)nc(NS(=N)(=O)c2cccc(C(=O)O)c2)n1, CDMT/NMM, DMF, 21.8 mM, 14.0 h): 9%

Cc1cccc(C)c1-c1cc2nc(n1)N=S(N)(=O)c1cccc(c1)C(=O)N(Cc1ncc(N3CC(C)(C)C3)cn1)[C@H](CC(C)(C)C)CO2 (single isomer, unassigned; isomer b)
ring closure, yield after HPLC ([1]; from 3-[[[4-[(2R)-2-[[5-(3,3-dimethylazetidin-1-yl)pyrimidin-2-yl]methylamino]-4,4-dimethyl-pentoxy]-6-(2,6-dimethylphenyl)pyrimidin-2-yl]amino]sulfonimidoyl]benzoic acid (hydrochloride salt) isomer B, CDMT/NMM, DMF, 18.4 mM): 4%

Cc1cccc(C)c1-c1cc2nc(n1)NS(=O)(=O)c1cccc(c1)C(=O)N(Cc1ccc(N3CCOCC3)cn1)[C@H](CC1CC3(CCC3)C1)CO2 [Compound 3, (11R)-6-(2,6-Dimethylphenyl)-12-[(5-morpholino-2-pyridyl)methyl]-2,2-dioxo-11-(spiro[3.3]heptan-2-ylmethyl)-9-oxa-2λ^6-thia-3,5,12,19-tetrazatricyclo[12.3.1.14,8]nonadeca-1(18),4(19),5,7,14,16-hexaen-13-one]
EC50 (CFTR; Table 10): < 1000 nM | Emax (CFTR; [2]): > 60% | ring closure, yield after HPLC ([1]; from Cc1cccc(C)c1-c1cc(OC[C@@H](CC2CC3(CCC3)C2)NCc2ccc(N3CCOCC3)cn2)nc(NS(=O)(=O)c2cccc(C(=O)O)c2)n1, CDMT/NMM, DMF, 25.0 °C, 2.5 h, 2 steps): 11%

Cc1cccc(C(C)C)c1-c1cc2nc(n1)NS(=O)(=O)c1cccc(c1)C(=O)N(Cc1ncc(N3CCOCC3)cn1)[C@H](CC(C)(C)C)CO2 [Compound 6, (11R)-11-(2,2-Dimethylpropyl)-6-[2-methyl-6-(propan-2-yl)phenyl]-12-{[5-(morpholin-4-yl)pyrimidin-2-yl]methyl}-9-oxa-2λ^6-thia-3,5,12,19-tetraazatricyclo[12.3.1.14,8]nonadeca-1(17),4(19),5,7,14(18),15-hexaene-2,2,13-trione]
EC50 (CFTR; Table 11): < 1000 nM | Emax (CFTR; [3]): > 60% | ring closure, yield after HPLC ([1]; from Cc1cccc(C(C)C)c1-c1cc(OC[C@@H](CC(C)(C)C)NCc2ncc(N3CCOCC3)cn2)nc(NS(=O)(=O)c2cccc(C(=O)O)c2)n1, CDMT/NMM, DMF, 54.0 mM, 25.0 °C, 60.0 h, 2 steps): 21%

Cc1cccc(OCc2ccccc2)c1-c1cc2nc(n1)NS(=O)(=O)c1cccc(c1)C(=O)N(Cc1ccc(N3CCOCC3)cn1)[C@H](CC(C)(C)C)CO2 [Compound 7, (11R)-6-(2-Benzyloxy-6-methyl-phenyl)-11-(2,2-dimethylpropyl)-12-[(5-morpholino-2-pyridyl)methyl]-2,2-dioxo-9-oxa-2λ^6-thia-3,5,12,19-tetrazatricyclo[12.3.1.14,8]nonadeca-1(18),4(19),5,7,14,16-hexaen-13-one]
activation at 10 µM (CFTR; Table 11, at 10 μM, read-out: HBE Activity at 10 μM (%)): > 60% | EC50 (CFTR; Table 11): < 1000 nM | Emax (CFTR; [3]): > 60% | ring closure, yield after HPLC ([1]; from Cc1cccc(OCc2ccccc2)c1-c1cc(OC[C@@H](CC(C)(C)C)NCc2ccc(N3CCOCC3)cn2)nc(NS(=O)(=O)c2cccc(C(=O)O)c2)n1, HATU/TBTU/DMTMM/DIEA, DCM, 3.76 mM, 25.0 °C, 1.0 h): 22%

Cc1cccc(C)c1-c1cc2nc(n1)NS(=O)(=O)c1cccc(c1)C(=O)N(Cc1ccc(OC3CCCC3)cn1)[C@H](CC(C)(C)C)CO2 [Compound 49, (11R)-12-[[5-(Cyclopentoxy)-2-pyridyl]methyl]-6-(2,6-dimethylphenyl)-11-(2,2-dimethylpropyl)-2,2-dioxo-9-oxa-2λ^6-thia-3,5,12,19-tetrazatricyclo[12.3.1.14,8]nonadeca-1(18),4(19),5,7,14,16-hexaen-13-one]
EC50 (CFTR; Table 10): 1000 to 3000 nM | Emax (CFTR; [2]): > 60% | ring closure, yield after HPLC ([1]; from 3-[[4-[(2R)-2-[[5-(cyclopentoxy)-2-pyridyl]methylamino]-4,4-dimethyl-pentoxy]-6-(2,6-dimethylphenyl)pyrimidin-2-yl]sulfamoyl]benzoic acid (Dihydrochloride salt), HATU/DIEA, DMF, 28.0 mM, 25.0 °C): 49%

Cc1cc(C)nc(CN2C(=O)c3cccc(c3)S(=O)(=O)Nc3nc(cc(-c4c(C)cccc4C)n3)OC[C@H]2CC(C)(C)C)c1 [Compound 55, (11R)-6-(2,6-Dimethylphenyl)-11-(2,2-dimethylpropyl)-12-[(4,6-dimethylpyridin-2-yl)methyl]-9-oxa-2λ^6-thia-3,5,12,19-tetraazatricyclo[12.3.1.14,8]nonadeca-1(18),4,6,8(19),14,16-hexaene-2,2,13-trione]
EC50 (CFTR; Table 11): < 1000 nM | Emax (CFTR; [3]): > 60% | ring closure, yield after HPLC ([1]; from 3-[[4-(2,6-dimethylphenyl)-6-[(2R)-2-[(4,6-dimethyl-2-pyridyl)methylamino]-4,4-dimethyl-pentoxy]pyrimidin-2-yl]sulfamoyl]benzoic acid (Dihydrochloride salt), CDMT/NMM, DMF, 42.2 mM, 25.0 °C): 44%

Cc1cccc(C)c1-c1cc2nc(n1)NS(=O)(=O)c1cccc(c1)C(=O)N(Cc1ncc(N3CCOCC3)cc1N1CCOCC1)[C@H](CC(C)(C)C)CO2 [Compound 56, (11R)-6-(2,6-Dimethylphenyl)-11-(2,2-dimethylpropyl)-12-[(3,5-dimorpholino-2-pyridyl)methyl]-2,2-dioxo-9-oxa-2λ^6-thia-3,5,12,19-tetrazatricyclo[12.3.1.14,8]nonadeca-1(18),4(19),5,7,14,16-hexaen-13-one]
EC50 (CFTR; Table 10): < 1000 nM | Emax (CFTR; [2]): > 60% | ring closure, yield after HPLC ([1]; from Cc1cccc(C)c1-c1cc(OC[C@@H](CC(C)(C)C)NCc2ncc(N3CCOCC3)cc2N2CCOCC2)nc(NS(=O)(=O)c2cccc(C(=O)O)c2)n1, CDMT/NMM, DMF, 25.0 °C, 2.5 h, 2 steps): 22%

Cc1cc(N2CCOCC2)cnc1CN1C(=O)c2cccc(c2)S(=O)(=O)Nc2nc(cc(-c3c(C)cccc3C)n2)OC[C@H]1CC(C)(C)C [Compound 57, (11R)-6-(2,6-Dimethylphenyl)-11-(2,2-dimethylpropyl)-12-[(3-methyl-5-morpholino-2-pyridyl)methyl]-2,2-dioxo-9-oxa-2λ^6-thia-3,5,12,19-tetrazatricyclo[12.3.1.14,8]nonadeca-1(18),4(19),5,7,14,16-hexaen-13-one]
EC50 (CFTR; Table 10): < 1000 nM | Emax (CFTR; [2]): > 60% | ring closure, yield after HPLC ([1]; from Cc1cc(N2CCOCC2)cnc1CN[C@@H](COc1cc(-c2c(C)cccc2C)nc(NS(=O)(=O)c2cccc(C(=O)O)c2)n1)CC(C)(C)C, CDMT/NMM, DMF, 25.0 °C, 3.5 h, 2 steps): 19%
